From patent US20200087340A1, “LIF/LIFR ANTAGONIST IN ONCOLOGY AND NONMALIGNANT DISEASES” (Evestra, Inc., priority 2018, published 2020)

Assays:
Format in all cases: cell-based, human
[1] = tested on: NCI-H522; assay: NCI-60 screening, Non-Small Cell Lung Cancer
[2] = tested on: COLO 205; assay: NCI-60 screening, Colon Cancer
[3] = tested on: HCT-15; assay: NCI-60 screening, Colon Cancer
[4] = tested on: HS 578T; assay: NCI-60 screening, Breast Cancer
[5] = tested on: RXF 393; assay: NCI-60 screening, Renal Cancer
[6] = tested on: OVCAR-3; assay: NCI-60 screening, Ovarian Cancer
Description: EC 330 was also tested using the NCI-60 Screening Methodology. The human tumor cell lines of the cancer screening panel are grown in RPMI 1640 medium containing 5% fetal bovine serum and 2 mM L-glutamine. For a typical screening experiment, cells are inoculated into 96 well microtiter plates in 100 μL at plating densities ranging from 5,000 to 40,000 cells/well depending on the doubling time of individual cell lines. After cell inoculation, the microtiter plates are incubated at 37° C., 5% CO2, 95% air and 100% relative humidity for 24 h prior to addition of experimental drugs. […]
Following drug addition, the plates are incubated for an additional 48 h at 37° C., 5% CO2, 95% air, and 100% relative humidity. […] Bound stain is subsequently solubilized with 10 mM trizma base, and the absorbance is read on an automated plate reader at a wavelength of 515 nm. […] Using the seven absorbance measurements [time zero, (Tz), control growth, (C), and test growth in the presence of drug at the five concentration levels (Ti)], the percentage growth is calculated at each of the drug concentrations levels. Percentage growth inhibition is calculated as: […]
Three dose response parameters are calculated for each experimental agent. […] The drug concentration resulting in total growth inhibition (TGI) is calculated from Ti=Tz. […]

[7] = tested on: SK-MEL-28; assay: NCI-60 screening, Melanoma
[8] = tested on: NCI-H226; assay: NCI-60 screening, Non-Small Cell Lung Cancer
[9] = tested on: KM12; assay: NCI-60 screening, Colon Cancer
[10] = tested on: BT-549; assay: NCI-60 screening, Breast Cancer
[11] = tested on: IGROV1; assay: NCI-60 screening, Ovarian Cancer
Description: Additional four, 10-fold or ½ log serial dilutions are made to provide a total of five drug concentrations plus control.
For adherent cells, the assay is terminated by the addition of cold TCA. Cells are fixed in situ by the gentle addition of 50 μl of cold 50% (w/v) TCA (final concentration, 10% TCA) and incubated for 60 minutes at 4° C. The supernatant is discarded, and the plates are washed five times with tap water and air dried. Sulforhodamine B (SRB) solution (100 μl) at 0.4% (w/v) in 1% acetic acid is added to each well, and plates are incubated for 10 minutes at room temperature. After staining, unbound dye is removed by washing five times with 1% acetic acid and the plates are air dried. […] Using the seven absorbance measurements [time zero, (Tz), control growth, (C), and test growth in the presence of drug at the five concentration levels (Ti)], the percentage growth is calculated at each of the drug concentrations levels. […]
Three dose response parameters are calculated for each experimental agent. […] The drug concentration resulting in total growth inhibition (TGI) is calculated from Ti=Tz. […] Values are calculated for each of these three parameters if the level of activity is reached; however, if the effect is not reached or is exceeded, the value for that parameter is expressed as greater or less than the maximum or minimum concentration tested.

[12] = tested on: SF-539; assay: NCI-60 screening, CNS Cancer
[13] = tested on: CCRF-CEM; assay: NCI-60 screening, Leukemia
[14] = tested on: SN12C; assay: NCI-60 screening, Renal Cancer
[15] = tested on: MDA-MB-435; assay: NCI-60 screening, Melanoma
[16] = tested on: SNB-19; assay: NCI-60 screening, CNS Cancer
[17] = tested on: NCI-H23; assay: NCI-60 screening, Non-Small Cell Lung Cancer
[18] = tested on: UO-31; assay: NCI-60 screening, Renal Cancer

SMILES: C#CC(F)(F)[C@]1(O)CCC2C3CCC4=CC(=O)CCC4=C3C(c3ccc(C4CC4)cc3)C[C@@]21C (stereo partly drawn) [EC330, 17α-(1,1-difluoro-2-propyn-1-yl)-17β-hydroxy-11β-[4-p-(cyclopropyl)phenyl]estra-4,9-dien-3-one]
- TGI (log10TGI) [1]: <−8.00
- TGI (log10TGI) [2]: −5.53
- TGI (log10TGI) [3]: >−4.00
- TGI (log10TGI) [4]: −4.99
- TGI (log10TGI) [5]: −5.09
- TGI (log10TGI) [6]: −6.85
- TGI (log10TGI) [7]: −5.43
- TGI (log10TGI) [8]: −5.04
- TGI (log10TGI) [9]: −5.91
- TGI (log10TGI) [10]: −5.30
- TGI (log10TGI) [11]: <−8.00
- TGI (log10TGI) [12]: −7.77
- TGI (log10TGI) [13]: <−8.00
- TGI (log10TGI) [14]: −4.58
- TGI (log10TGI) [15]: −5.03
- TGI (log10TGI) [16]: >−4.00
- TGI (log10TGI) [17]: <−8.00
- TGI (log10TGI) [18]: <−8.00
